Laboratory results published in patent US10344019B2 (priority 2010, dated 2019).
Like-named read-outs stand apart in the source and are kept apart here.

Key:
Experiment in all cases: microbe, parasite or virus in culture
Format in all cases: cell-based
[1] = test system: HCV 1a RLuc cells (dicistronic genotype 1a H77 replicon, RLuc reporter); conditions: Hepatitis C virus, genotype 1a H77 replicon, read-out: 1a
Experimental: (§1) Evaluation of cell-based anti-HCV activity: Antiviral potency (EC50) was determined using a Renilla luciferase (RLuc)-based HCV replicon reporter assay. To perform the assay for genotype 1 and 2a JFH-1, HCV 1b RLuc cells (harboring a dicistronic genotype 1b Con1 replicon that encodes a RLuc reporter), or HCV 1a RLuc cells (harboring a dicistronic genotype 1a H77 replicon that encodes a RLuc reporter), or HCV 2a JFH-1 Rluc cells (harboring a dicistronic genotype 2a JFH-1 replicon that encodes a RLuc reporter) were dispensed into 384-well plates. To perform the assay for genotype 2a (with M31 present) or 2b, HCV 2a Rluc or 2b Rluc cells (both with M31 present) harboring a dicistronic NS5A chimeric genotype 2a JFH-1 replicon that encodes a RLuc reporter and either genotype 2a J6 strain NS5A gene or genotype 2b MD2b-1 NS5A gene (based on Los Alamos HCV database isolates, both with M31 present) respectively, were dispensed into 384-well plates. To perform the assay for genotype 3 and 4, HCV 3a RLuc or 4a Rluc cells harboring a dicistronic NS5A chimeric genotype 1b Con1 replicon that encodes a RLuc reporter and either a consensus genotype 3a NS5A gene or genotype 4a NS5A gene (based on Los Alamos HCV database isolates) respectively, were dispensed into 384-well plates. Compounds were re-suspended in DMSO at a concentration of 10 mM and serially diluted in DMSO either manually or using an automated pipeting instrument. Serially diluted compounds were mixed with cell culture media and added to the seeded cells. […] 72 hours later, cells were lysed and Renilla luciferase activity quantified as recommended by the manufacturer (Promega-Madison, Wis.). Non-linear regression was performed to calculate EC50 values.

[2] = test system: HCV 1b RLuc cells (dicistronic genotype 1b Con1 replicon, RLuc reporter); conditions: Hepatitis C virus, read-out: 1b (nM)
Experimental: as §1

[3] = test system: HCV 2a JFH-1 Rluc cells (dicistronic genotype 2a JFH-1 replicon, RLuc reporter); conditions: Hepatitis C virus, genotype 2a JFH-1 replicon, read-out: 2a JFH
Experimental: as §1

[4] = test system: HCV 3a RLuc cells (NS5A chimeric genotype 1b Con1 replicon with consensus genotype 3a NS5A gene); conditions: Hepatitis C virus
Experimental: as §1

[5] = read-out: 3a, genotype 3a NS5A chimeric 1b Con1 replicon
[6] = read-out: 3a, Table 2, genotype 3a NS5A chimeric replicon

| SMILES | EC50 ([1]; RLuc reporter) [nM] | EC50 [2] [nM] | EC50 ([3]; RLuc reporter) [nM] | EC50 [4, 5] [nM] | EC50 ([1]; 72 h, Table 2, 72 hours) [nM] | EC50 ([2]; 72 h) [nM] | EC50 ([3]; 72 h, Table 2, 72 hours) [nM] | EC50 [4, 6] [nM] |
| --- | --- | --- | --- | --- | --- | --- | --- | --- |
| COC(=O)N[C@H](C(=O)N1C[C@H](C)C[C@H]1c1ncc(-c2cc3cc4sc(-c5cnc([C@@H]6C[C@@H](C)CN6C(=O)[C@@H](NC(=O)OC)C(C)C)[nH]5)cc4cc3s2)[nH]1)C(C)C [Example 121] | 0.001 to 0.999 | 0.011 | 0.001 to 0.999 | 1 to 4.99 | – | – | – | – |
| COC(=O)NC(C(=O)N1C[C@H](C)C[C@H]1c1ncc(-c2ccc(-c3ccc4cc(-c5cnc([C@@H]6CCCN6C(=O)[C@@H](NC(=O)OC)C6CCOCC6)[nH]5)ccc4c3)cc2)[nH]1)c1cccnc1 (stereo partly shown) [Example 214] | 0.001 to 0.999 | 0.06 | 0.001 to 0.999 | 0.001 to 0.99 | – | – | – | – |
| CCN(C1CC1)[C@@H](C(=O)N1CCC[C@H]1c1nc(-c2ccc(-c3ccc4cc(-c5c[nH]c([C@@H]6CCCN6C(=O)[C@@H](NC(=O)OC)C(C)C)n5)ccc4c3)cc2)c[nH]1)c1ccccc1 [Example 168] | 1 to 44 | 0.01 | 1 to 44 | 0.001 to 0.99 | – | – | – | – |
| COC(=O)N[C@H](C(=O)N1CCC[C@H]1c1nc(-c2ccc(-c3ccc4cc(C5=CNC([C@@H]6CCCN6C(=O)[C@H](NC(=O)OC)c6ccccc6)N5)ccc4c3)cc2)c[nH]1)C1CCOCC1 (stereo partly shown) [Example 178] | 0.001 to 0.999 | 0.024 | 0.001 to 0.999 | 0.001 to 0.99 | – | – | – | – |
| COC(=O)N[C@H](C(=O)N1CCC[C@H]1c1ncc(-c2ccc(-c3ccc4cc(-c5cnc([C@@H]6CCCN6C(=O)[C@H](NC(=O)OC)c6ccccc6)[nH]5)ccc4c3)cc2)[nH]1)C(C)C [Example 30] | – | – | – | – | 0.001 to 0.999 | 0.008 | 0.001 to 0.999 | 0.001 to 0.99 |
| COC(=O)N[C@@H](CC1CCOCC1)C(=O)N1CCC[C@H]1c1ncc(-c2ccc3cc(-c4ccc(-c5cnc([C@@H]6CCCN6C(=O)[C@H](NC(=O)OC)c6ccccc6)[nH]5)cc4)ccc3c2)[nH]1 [Example 213] | 0.001 to 0.999 | 0.03 | 0.001 to 0.999 | 0.001 to 0.99 | – | – | – | – |
| COC(=O)N[C@H](C(=O)N1CCC[C@H]1c1ncc(-c2ccc3cc(-c4ccc(-c5cnc([C@@H]6CCCN6C(=O)C(c6ccccc6)N(C)C)[nH]5)cc4)ccc3c2)[nH]1)C(C)C (stereo partly shown) [Example 134] | 0.001 to 0.999 | 0.007 | 0.001 to 0.999 | 0.001 to 0.99 | – | – | – | – |
| COC(=O)N[C@H](C(=O)N1CCC[C@H]1c1nc2c([nH]1)-c1ccc(-c3ccc4cc(-c5cnc([C@@H]6COCCN6C(=O)[C@H](NC(=O)OC)c6ccccc6)[nH]5)ccc4c3)cc1CC2)C(C)C [Example 211] | 0.001 to 0.999 | 0.009 | 1 to 44 | 1 to 4.99 | – | – | – | – |
| COC(=O)N[C@H](C(=O)N1C[C@H](C)C[C@H]1c1ncc(-c2ccc3cc(-c4ccc(-c5cnc([C@@H]6CCCN6C(=O)[C@H](NC(=O)OC)c6cccc(C)c6)[nH]5)cc4)ccc3c2)[nH]1)C(C)C [Example 184] | 0.001 to 0.999 | 0.009 | 0.001 to 0.999 | 0.001 to 0.99 | – | – | – | – |
| COC(=O)N[C@H](C(=O)N1CCC[C@H]1c1nc(-c2ccc3cc(-c4ccc(-c5c[nH]c([C@@H]6CCCN6C(=O)[C@@H](c6ccccc6)N(C6CC6)C6CC6)n5)cc4)ccc3c2)c[nH]1)C(C)C [Example 179] | 1 to 44 | 0.041 | 1 to 44 | > 5 | – | – | – | – |
| COC(=O)N[C@H](C(=O)N1CCC[C@H]1c1ncc(-c2ccc3cc(-c4ccc5c(c4)CCc4nc([C@@H]6CCCN6C(=O)[C@H](NC(=O)OC)c6ccccc6)[nH]c4-5)ccc3c2)[nH]1)C(C)C [Example 142] | 0.001 to 0.999 | 0.013 | 0.001 to 0.999 | 0.001 to 0.99 | – | – | – | – |
| COC(=O)N[C@H](C(=O)N1CCC[C@H]1c1ncc(-c2ccc3cc(-c4ccc(-c5cnc([C@]6(F)CCCN6C(=O)[C@H]6c7ccccc7CCN6C)[nH]5)cc4)ccc3c2)[nH]1)C(C)C [Example 152] | > 44 | 0.751 | > 44 | 1 to 4.99 | – | – | – | – |
| COC(=O)N[C@H](C(=O)N1CCC[C@H]1c1ncc(-c2ccc(-c3ccc4cc(-c5cnc([C@@H]6CCCN6C(=O)C(c6ccccc6)N6CCCC6)[nH]5)ccc4c3)cc2)[nH]1)C(C)C (stereo partly shown) [Example 125] | 0.001 to 0.999 | 0.032 | 0.001 to 0.999 | 0.001 to 0.99 | – | – | – | – |
| COC(=O)NC(C(=O)N1CCC[C@H]1c1ncc(-c2ccc(-c3ccc4cc(-c5cnc([C@@H]6CCCN6C(=O)[C@@H](NC(=O)OC)C(C)C)[nH]5)ccc4c3)cc2)[nH]1)c1ccccn1 (stereo partly shown) [Example 183] | 0.001 to 0.999 | 0.013 | 0.001 to 0.999 | 1 to 4.99 | – | – | – | – |
| COC(=O)N[C@H](C(=O)N1C[C@@H](C#N)C[C@H]1c1ncc(-c2ccc3cc(-c4ccc(-c5cnc([C@@H]6CCCN6C(=O)[C@@H](c6ccccc6)N(C)C)[nH]5)cc4)ccc3c2)[nH]1)C(C)C [Example 137] | 0.001 to 0.999 | 0.012 | 0.001 to 0.999 | 0.001 to 0.99 | – | – | – | – |
| COC(=O)N[C@@H](CC(F)F)C(=O)N1CCC[C@H]1c1ncc(-c2ccc3cc(-c4ccc(-c5cnc([C@@H]6CCCN6C(=O)[C@H](NC(=O)OC)c6ccccc6)[nH]5)cc4)ccc3c2)[nH]1 [Example 127] | 0.001 to 0.999 | 0.006 | 0.001 to 0.999 | 0.001 to 0.99 | – | – | – | – |
| COC(=O)N[C@H](C(=O)N1CCC[C@H]1c1nc2c([nH]1)COc1cc(-c3ccc4cc(-c5c[nH]c([C@@H]6CCCN6C(=O)[C@H](NC(=O)OC)c6ccccc6)n5)ccc4c3)ccc1-2)C(C)C [Example 176] | 0.001 to 0.999 | 0.006 | 0.001 to 0.999 | 0.001 to 0.99 | – | – | – | – |
| COC(=O)N[C@H](C(=O)N1CC2(C[C@H]1c1ncc(-c3ccc4c(c3)C(F)(F)c3cc(-c5ccc6nc(C7[C@H]8CC[C@H](C8)N7C(=O)[C@@H](NC(=O)OC)C(C)C)[nH]c6c5)ccc3-4)[nH]1)OCCO2)C(C)C (stereo partly shown) [Example 38] | – | – | – | – | 0.001 to 0.999 | 0.003 | 1 to 44 | > 5 |
| COC(=O)N(C)[C@H](C(=O)N1CCC[C@H]1c1ncc(-c2ccc3cc(-c4ccc(-c5cnc([C@@H]6CCCN6C(=O)C(c6ccccc6)N6CCOCC6)[nH]5)cc4)ccc3c2)[nH]1)C(C)C (stereo partly shown) [Example 119] | 0.001 to 0.999 | 0.02 | 0.001 to 0.999 | 0.001 to 0.99 | – | – | – | – |
| COC(=O)NC(C(=O)N1CCC[C@H]1c1ncc(-c2ccc(-c3ccc4cc(-c5cnc([C@@H]6CCCN6C(=O)[C@@H](NC(=O)OC)C(C)C)[nH]5)ccc4c3)cc2)[nH]1)c1ccccc1Cl (stereo partly shown) [Example 104] | 0.001 to 0.999 | 0.007 | 0.001 to 0.999 | 0.001 to 0.99 | – | – | – | – |
| COC(=O)NC(C(=O)N1CCC[C@H]1c1ncc(-c2ccc3cc(-c4ccc(-c5cnc([C@@H]6CCCN6C(=O)[C@@H](NC(=O)OC)C(C)C)[nH]5)cc4)ccc3c2)[nH]1)c1ccc(OC(F)(F)F)cc1 (stereo partly shown) [Example 111] | 1 to 44 | 0.16 | > 44 | > 5 | – | – | – | – |
| COC(=O)N[C@H](C(=O)N1CCC[C@H]1c1ncc(-c2ccc(-c3ccc4cc(-c5cnc([C@@H]6CCCN6C(=O)[C@@H](NC(=O)OC)C(C)C)[nH]5)ccc4c3)cc2)[nH]1)c1ccccc1OC [Example 105] | 1 to 44 | 0.042 | 1 to 44 | 1 to 4.99 | – | – | – | – |
| COC(=O)N[C@H](C(=O)N1CCC[C@H]1c1nc2c([nH]1)-c1ccc(-c3ccc4cc(-c5cnc([C@@H]6CCCN6C(=O)[C@H](NC(=O)OC)c6ccccc6)[nH]5)ccc4c3)cc1CC2)C(C)C [Example 210] | 0.001 to 0.999 | 0.008 | 0.001 to 0.999 | 0.001 to 0.99 | – | – | – | – |
| COC(=O)N[C@H](C(=O)N1CCC[C@H]1c1ncc(-c2ccc3cc(-c4ccc(-c5cnc([C@@H]6CCCN6C(=O)[C@H](NC(=O)OC)c6cccc(PC)c6)[nH]5)cc4)ccc3c2)[nH]1)C(C)C (stereo partly shown) [Example 185] | 1 to 44 | 0.008 | 0.001 to 0.999 | 0.001 to 0.99 | – | – | – | – |
| COC(=O)N[C@H](C(=O)C1CCSC1c1ncc(-c2ccc(-c3ccc4cc(-c5cnc([C@@H]6CCCN6C(=O)[C@H](NC(=O)OC)c6ccccc6)[nH]5)ccc4c3)cc2)[nH]1)C(C)C (stereo partly shown) [Example 131] | 0.001 to 0.999 | 0.009 | 0.001 to 0.999 | 0.001 to 0.99 | – | – | – | – |
